In patent publication US20080280939A1, “Combination of Organic Compounds” (priority 2004, published 2008):

Key:
[1] = 4-week toxicity study in rats; assay type: in vivo
Method: (§1) Rapamycin or derivatives thereof are well tolerated at dosages required for use in accordance with the present invention. For example, the NTEL for Compound A in a 4-week toxicity study is 0.5 mg/kg/day in rats and 1.5 mg/kg/day in monkeys.

[2] = 4-week toxicity study in monkeys; assay type: in vivo
Method: as §1

CO[C@H]1C[C@@H]2CC[C@@H](C)[C@@](O)(O2)C(=O)C(=O)N2CCCC[C@H]2C(=O)O[C@H]([C@H](C)C[C@@H]2CC[C@@H](OCCO)[C@H](OC)C2)CC(=O)[C@H](C)/C=C(\C)[C@@H](O)[C@@H](OC)C(=O)[C@H](C)C[C@H](C)/C=C/C=C/C=C/1C [Compound A, 40-0-(2-hydroxyethyl)-rapamycin]
NTEL [1]: 0.5 mg/kg/day | NTEL [2]: 1.5 mg/kg/day
